Experimental findings from US20250195660A1, “INACTIVATING BACTERIA WITH ELECTRIC PULSES AND ANTIBIOTICS” (Purdue Research Foundation, priority 2018, published 2025) are described below.

The test system of experiment [1] is methicillin resistant Staphylococcus aureus (USA300-0114 strain). Nature of the experiment: Inactivation of MRSA by 300 ns electric pulses and/or antibiotics (CFU plating). It counts as cell-based. As to conditions: 20 μg/mL + 30 kV/cm EPs. From the text: (§1) Except for rifampicin, the five other antibiotics in these examples primarily target gram-positive bacteria and are largely ineffective or not used against gram-negative bacteria in a clinical setting.
(§2) A Blumlein pulsed generator consisting of two lines comprised of twelve 2000 pF capacitors connected by inductors produced 300 ns EPs with rise-times of 30 ns and fall-times of 35 ns at a repetition frequency of 1 Hz (12). The EPs were applied to a standard 2 mm gap electroporation cuvette (Dot Scientific R) filled with a solution containing the microorganisms. Used was a Luria broth of 0.5% salinity (5 grams of NaCl/Liter) for the solution to electrically match the resistance of the sample with the impedance of the pulse generator (11Ω) to prevent signal reflection. The voltage measurements were taken using a LeCroy PPE 20 kV high voltage probe with a 1000:1 attenuation recorded by a TeleDyne LeCroy® Waverunner 6 Zi Oscilloscope with a bandwidth of 4 GHZ.
The gram-negative strains included a carbapenem-resistant Escherichia coli (ATCC® BA-2452TM, New Delhi metallo-beta-lactamase NDM-1 positive.), Klebsiella pneumoniae (ATCC® BAA-2146TM NDM-I positive), and a gentamicin, streptomycin and sulfonamide resistant Pseudomonas aeruginosa (BEI Resources NR-31040). Assessed was the gram-positive strain of methicillin resistant Staphylococcus aureus (USA300-0114 strain), which is also resistant to erythromycin and tetracycline. Samples were cultured in Luria broth (LB Broth Lennox, powder microbial growth medium, SIGMA-ALDRICH®) by taking 25 mL of broth in a 50 mL sterile conical tube and incubating in a shaker for 16 h at 37° C. Samples were diluted 50% by adding 25 mL media to the incubated sample as we plated controls for each experiment and condition. […]
Removed was 20 μL from each cuvette and added to 180 μL of PBS in a 96-well dish in triplicate. […] These plates were then cultured overnight in an incubator at 37° C., and counted the next day.

In experiment [2] the test system is Klebsiella pneumoniae (ATCC BAA-2146 NDM-I positive). Nature of the experiment: Inactivation of K. pneumoniae by 300 ns electric pulses and/or antibiotics (CFU plating). It counts as cell-based.
From the text: as §1, §2
(§3) The gram-negative strains included a carbapenem-resistant Escherichia coli (ATCC® BA-2452TM, New Delhi metallo-beta-lactamase NDM-1 positive.), Klebsiella pneumoniae (ATCC® BAA-2146TM NDM-I positive), and a gentamicin, streptomycin and sulfonamide resistant Pseudomonas aeruginosa (BEI Resources NR-31040). Assessed was the gram-positive strain of methicillin resistant Staphylococcus aureus (USA300-0114 strain), which is also resistant to erythromycin and tetracycline. Samples were cultured in Luria broth (LB Broth Lennox, powder microbial growth medium, SIGMA-ALDRICH®) by taking 25 mL of broth in a 50 mL sterile conical tube and incubating in a shaker for 16 h at 37° C. Samples were diluted 50% by adding 25 mL media to the incubated sample as we plated controls for each experiment and condition.
(§4) Samples were treated in 2 mm gap cuvettes containing 365 μL of sample between the electrodes, with bio-grade mineral oil added on top of the electrode plates to prevent arcing.
(§5) To establish a common baseline for comparing different NSEP parameters, we fixed the energy density U delivered to the cuvettes according to Formula (1) (above). For 300 ns EPs, 500 EPs at 20 kV/cm and 222 EPs at 30 kV/cm delivered the same energy to the sample.
(§6) Tissue culture Petri dishes from VWR R (15 cm diameter, 10 mm height) were utilized for plating. Each plate was covered with 15 mL of Luria broth (Agar, microbiology tested powder, SIGMA-ALDRICH®), which was prepared by adding 20 g of LB Lennox (SIGMA-ALDRICH) and 15 g/L of agar to water prior to being autoclaved. The salinity of the agar was the same as the LB (0.5% NaCl) to minimize additional environmental stressors on the bacteria.
(§7) Removed was 20 μL from each cuvette and added to 180 μL of PBS in a 96-well dish in triplicate. Each well was then diluted by a ratio of 10:1 five additional times by taking 20 μL of the diluted sample into subsequent wells using multi-channel pipettes (using fresh tips for each dilution). Plated were the six dilutions of each sample two times each by adding 4 μL from each well onto the Petri dish using a multi-channel pipette, which allowed the plating of all three replicates on the same plate to achieve n=6. These plates were then cultured overnight in an incubator at 37° C., and counted the next day.

The subject of experiment [3] is carbapenem-resistant Escherichia coli (ATCC BA-2452, NDM-1 positive). Nature of the experiment: Inactivation of carbapenem-resistant E. coli by 300 ns electric pulses and/or antibiotics (CFU plating). The class given is cell-based. As to conditions: 30 kV/cm NSEPs + 20 μg/mL.
From the text: as §1, §2, §3, §4, §5, §6, §7

Experiment [4] has as its system Stapphylococcus aureus (gram positive bacterium number 25923). Nature of the experiment: Inactivation of S. aureus by 300 ns electric pulses combined with antibiotic (CFU plating). It counts as cell-based, Staphylococcus aureus. The following applies: 30 kV/cm treatment + 20 μg/ml dose, in 10 min.

With `CO[C@H]1/C=C/O[C@@]2(C)Oc3c(C)c(O)c4c(O)c(c(/C=N/N5CCN(C)CC5)c(O)c4c3C2=O)NC(=O)/C(C)=C\C=C\[C@H](C)[C@H](O)[C@@H](C)[C@@H](O)[C@@H](C)[C@H](OC(C)=O)[C@@H]1C` [rifampicin], the “synergy (synergistic inactivation), MRSA” value in experiment [1] was “approximately 1.5 log”. In experiment [2] (30 kV/cm NSEPs + 2 μg/mL), the “additional inactivation compared to NSEPs alone, K. pneumoniae” value came out at 1 log and the “log reduction of K. pneumoniae” value is listed as 5 log. Moreover, in experiment [2] (30 kV/cm NSEPs + 20 μg/mL), the “additional inactivation compared to NSEPs alone, K. pneumoniae” value is 1 log. Moreover, the “log reduction of E. coli” value in experiment [3] came out at 6 log. In experiment [4], the “additional log-reduction of S. aureus” value is 1.5 log.
